Reference: patent publication US20090131524A1, “SIALIC ACID ABC TRANSPORTERS IN PROKARYOTES THERAPEUTIC TARGETS” (BUCK INSTITUTE, priority 2005, published 2009)

Tested on: H. ducreyi
Test: growth of H. ducreyi in the presence of sialic acid
Type: cell-based, Haemophilus ducreyi
Experimental: H. ducreyi strains were cultured on chocolate agar plates at 35° C. in a 5% CO2 atmosphere as previously described (42). Chocolate agar was supplemented with 1 mM NeuAc (Calbiochem, La Jolla, Calif.) or kanamycin at 20 μg/ml when appropriate. E. coli strains were grown on Luria-Bertani (LB) plates or in LB broth, and were supplemented with kanamycin when appropriate.
In this and previous studies, H. ducreyi were grown on plates containing high levels of sialic acid (22, 50). […] To more quantitatively test whether the presence of high levels of sialic acid affected the growth rate of H. ducreyi, growth curves of H. ducreyi in low (˜0.5 μM, basal level in media) (50), medium (10 μM), and high (1 mM) sialic acid conditions were performed (46). […] Both E. coli and H. influenzae seem to utilize their ability to degrade sialic acid as one mechanism of controlling the intracellular levels of sialic acid (66, 68, 69). As noted above, it is currently unclear if H. ducreyi is able to degrade sialic acid. Another possible mechanism for controlling sialic acid uptake may be through the PBPs. […] Therefore, it is possible that SatA may play an important role in controlling sialic acid uptake in H. ducreyi. One mechanism of control could be that the level of satA expression may be affected by the intracellular levels of sialic acid. […]

CC(=O)N[C@H]1[C@H]([C@H](O)[C@H](O)CO)OC(O)(C(=O)O)C[C@@H]1O (some centres unmarked) [sialic acid, N-acetyl-neuraminic acid]
effect of sialic acid on growth of the bacteria on plates (grown on plates containing high levels of sialic acid): did not seem to affect the growth
growth rate (growth curves) (low (~0.5 μM, basal level in media), medium (10 μM) and high (1 mM) sialic acid): no differences in the growth rates
